Assay results taken from US5547962A, “5-amino-8-methyl-7-pyrrolidinylquinoline-3-carboxylic acid derivative” (priority 1993, dated 1996).
In brackets after ≈: the same amount, converted by molar mass. Entries after “also recorded” stand apart in the source; their conditions may differ. Read-outs that look alike come from different tables or passages of the source.

Tests used:
CHL cells [1] = test: Chromosomal aberration test with a Chinese hamster lung cell line (CHL); type: cell-based
Procedure: The chromosomal aberration test was conducted with a Chinese hamster lung cell line (CHL). 2-(2-Furyl)-3-(5-nitro-2-furyl)acrylamide was used as a positive control. Cells treated with the test compounds were cultured for 6 h at 37° C. in 5% CO2 -humidified air. Following the 6 h treatment the cells were washed. Fresh medium was added to the washed cells and they were cultured for a further 18 h. Colcemide was added to the cultures 2 h before the fixation of chromosome preparation, in order to collect metaphase cells.

Male Hartley guinea pigs = type: in vivo; settings: 10 mg/kg i.v.; for phototoxicity, in words: UVA; for Phototoxicity: number of animals with erythemas/number of animals tested: UVA 90 minutes, 24 h after irradiation
Procedure: Male Hartley guinea pigs were intravenously administered test compounds at a dose of 10 mg/kg, and immediately exposed to UVA on their backs for 90 minutes.

CHL cells [2] = settings: 31th ICAAC, Abstract No. 1507 (1991); cited from earlier work
[3] = test system: polychromatic erythrocytes (PCEs); test: Micronucleus test, bone marrow of mice; type: in vivo, BDF 1 mice; settings: percent of the number of MNPCEs per 1,000 PCEs; 250 mg/kg i.p., 24 h
Procedure: Nine-week-old male BDF 1 mice were used in this test. The test compounds were injected intraperitoneally with a dose of 250 mg/kg. After 24 h mice were sacrificed and the bone marrow of the femur was collected. Bone marrow smears were fixed on the slides with methanol and stained with Giemsa according to the usual method. For each animal, the number of micronucleated polychromatic erythrocytes (MNPCEs) per 1,000 polychromatic erythrocytes (PCEs) was counted under the microscope. Cyclophosphamide was used as a positive control.

S. aureus FDA 209P JC-1 = test: Antibacterial activity, MIC by agar dilution; type: cell-based; settings: Staphylococcus aureus, FDA209P; laboratory standard strain, gram +
Excerpt: (§1) The strains employed were as follows:
(§2) Staphylococcus aureus (S. aureus)

S. aureus HPC292 = test: Antibacterial activity, MIC by agar dilution; type: cell-based; settings: Staphylococcus aureus, clinically isolated strain, gram +
Excerpt: as §1, §2

S. aureus HPC308 = test: Antibacterial activity, MIC by agar dilution; type: cell-based; settings: Staphylococcus aureus, clinically isolated strain, gram +
Excerpt: as §1, §2

S. aureus HPC527 = test: Antibacterial activity, MIC by agar dilution; type: cell-based; settings: Staphylococcus aureus, clinically isolated strain, gram +
Excerpt: as §1, §2

E. coli NIHJ JC-2 = test: Antibacterial activity, MIC by agar dilution; type: cell-based; settings: Escherichia coli, NIHJJC2; laboratory standard strain, gram -
Excerpt: as §1
Escherichia coli (E. coli)

K. pneumoniae HNR828 = test: Antibacterial activity, MIC by agar dilution; type: cell-based; settings: Klebsiella pneumoniae, clinically isolated strain, gram -
Excerpt: as §1
(§3) Klebsiella pneumoniae (K. pneumoniae)

K. pneumoniae HNR858 = test: Antibacterial activity, MIC by agar dilution; type: cell-based; settings: Klebsiella pneumoniae, clinically isolated strain, gram -
Excerpt: as §1, §3

K. pneumoniae HNR869 = test: Antibacterial activity, MIC by agar dilution; type: cell-based; settings: Klebsiella pneumoniae, clinically isolated strain, gram -
Excerpt: as §1, §3

K. pneumoniae PCI-602 = test: Antibacterial activity, MIC by agar dilution; type: cell-based; settings: Klebsiella pneumoniae, PCI602; laboratory standard strain, gram -
Excerpt: as §1, §3

S. marcescens HNR1544 = test: Antibacterial activity, MIC by agar dilution; type: cell-based; settings: Serratia marcescens, clinically isolated strain, gram -
Excerpt: as §1
(§4) Serratia marcescens (S. marcescens)

S. marcescens HNR1767 = test: Antibacterial activity, MIC by agar dilution; type: cell-based; settings: Serratia marcescens, clinically isolated strain, gram -
Excerpt: as §1, §4

S. marcescens HNR1792 = test: Antibacterial activity, MIC by agar dilution; type: cell-based; settings: Serratia marcescens, clinically isolated strain, gram -
Excerpt: as §1, §4

S. marcescens IAM 1184 = test: Antibacterial activity, MIC by agar dilution; type: cell-based; settings: Serratia marcescens, IAM1184; laboratory standard strain, gram -
Excerpt: as §1, §4

E. cloacae 963 = test: Antibacterial activity, MIC by agar dilution; type: cell-based; settings: Enterobacter cloacae, laboratory standard strain, gram -
Excerpt: as §1
(§5) Enterobacter cloacae (E. cloacae)

E. cloacae HNR1939 = test: Antibacterial activity, MIC by agar dilution; type: cell-based; settings: Enterobacter cloacae, clinically isolated strain, gram -
Excerpt: as §1, §5

E. cloacae HNR1941 = test: Antibacterial activity, MIC by agar dilution; type: cell-based; settings: Enterobacter cloacae, clinically isolated strain, gram -
Excerpt: as §1, §5

E. cloacae HNR1946 = test: Antibacterial activity, MIC by agar dilution; type: cell-based; settings: Enterobacter cloacae, clinically isolated strain, gram -
Excerpt: as §1, §5

E. faecalis HPC948 = test: Antibacterial activity, MIC by agar dilution; type: cell-based; settings: Enterococcus faecalis, clinically isolated strain, gram +
Excerpt: as §1
(§6) Enterococcus faecalis (E. faecalis)

E. faecalis HPC975 = test: Antibacterial activity, MIC by agar dilution; type: cell-based; settings: Enterococcus faecalis, clinically isolated strain, gram +
Excerpt: as §1, §6

E. faecalis HPC984 = test: Antibacterial activity, MIC by agar dilution; type: cell-based; settings: Enterococcus faecalis, clinically isolated strain, gram +
Excerpt: as §1, §6

A. calcoaceticus HNR904 = test: Antibacterial activity, MIC by agar dilution; type: cell-based; settings: Acinetobacter calcoaceticus, clinically isolated strain, gram -
Excerpt: as §1
(§7) Acinetobacter calcoaceticus (A. calcoaceticus)

A. calcoaceticus HNR916 = test: Antibacterial activity, MIC by agar dilution; type: cell-based; settings: Acinetobacter calcoaceticus, clinically isolated strain, gram -
Excerpt: as §1, §7

A. calcoaceticus HNR939 = test: Antibacterial activity, MIC by agar dilution; type: cell-based; settings: Acinetobacter calcoaceticus, clinically isolated strain, gram -
Excerpt: as §1, §7

[4] = test system: clinically isolated strains (HPC527, HPC308 and HPC292) of S aureus; test: Comparison with analogous compounds: antibacterial activity (MIC) against clinically isolated strains of S. aureus; type: cell-based, Staphylococcus aureus; settings: comparison to Tables 7 and 8
Procedure: Minimum inhibitory concentrations (MICs) of test compounds were determined by agar dilution procedure as described in the standard method of the Japan Society of Chemotherapy (Chemotherapy (Tokyo), 29,1, 76 (1981)). The strains employed were as follows:
All the data of the antibacterial activity, chromosomal aberration activity, phototoxicity and inducement of convulsions were obtained from the same tests methods as those described above. Among this, the data of the antibacterial activity shown in Tables 7 and 8 are MICs (minimum inhibitory concentrations) value against clinically isolated strains (HPC527, HPC308 and HPC292) of S aureus which is a representative gram-positive bacteria.

[5] = Tissue distribution after oral administration, HPLC; type: in vivo, Sprague-Dawley rats; settings: for Kp: po, 5 mg/kg
Procedure: Seven-week-old male Sprague-Dawley rats were used. The test compounds were orally administered at a dose of 5 mg/kg to rats fasted overnight. At intervals of 0.083, 0.25, 0.5, 1, 2, 4, 6, 8, 12 and 24 h after administration, the rats were anesthetized with ether and blood samples were taken from the abdominal aorta. Plasma samples were obtained from the blood samples in the usual way. The lungs and kidneys were removed after collection of blood, and homogenated with 4 ml and 7 ml of 1 M HCl-citrate buffer (pH 4.0), respectively.
The concentration of the test compounds in the biological fluids (plasma and in each tissue tested) was determined by HPLC method. Hydrochloric acid and ether were added to 0.5 ml of plasma or 0.5 g of each tissue homogenate. The mixture was shaken and centrifuged. After the removal of the organic phase, aq. NaOH solution, phosphate buffer (pH 7.0) and chloroform were added to the aqueous phase. The mixture was shaken and centrifuged. The organic phase was then concentrated. The residue was dissolved and subjected to HPLC. The concentration of the test compounds in each biological fluid at Tmax (time of the maximum concentration in plasma) is shown in Table 6.

[6] = times higher than ciprofloxacin, at Tmax

SMILES	toxicity (chromosomal aberration), in words (CHL cells [1])	phototoxicity, in words (Male Hartley guinea pigs)	Incidence of MNPCEs [3] [%]	Phototoxicity: number of animals with erythemas/number of animals tested (Male Hartley guinea pigs)	MIC (S. aureus FDA 209P JC-1) [µg/mL]	MIC (S. aureus HPC292) [µg/mL]	MIC (S. aureus HPC308) [µg/mL]	MIC (S. aureus HPC527) [µg/mL]	MIC (E. coli NIHJ JC-2) [µg/mL]	MIC (K. pneumoniae HNR828) [µg/mL]	MIC (K. pneumoniae HNR858) [µg/mL]	MIC (K. pneumoniae HNR869) [µg/mL]	MIC (K. pneumoniae PCI-602) [ng/mL]	MIC (S. marcescens HNR1544) [µg/mL]	MIC (S. marcescens HNR1767) [µg/mL]	MIC (S. marcescens HNR1792) [µg/mL]	MIC (S. marcescens IAM 1184) [µg/mL]	MIC (E. cloacae 963) [µg/mL]	MIC (E. cloacae HNR1939) [µg/mL]	MIC (E. cloacae HNR1941) [µg/mL]	also measured
Cc1c(N2C[C@@H](N)C3(CC3)C2)c(F)cc2c(=O)c(C(=O)O)cn(C3CC3)c12 [Reference Compound C, 7-((S)-7-amino-5-azaspiro[2.4]hept-5-yl)-1-cyclopropyl-6-fluoro-1,4-dihydro-8-methyl-4-oxoquinoline-3-carboxylic acid]	observed	no phototoxicity	–	–	–	–	–	–	–	–	–	–	–	–	–	–	–	–	–	–	death of guinea pigs (Male Hartley guinea pigs; phototoxicity test): death of one guinea pig out of five; chromosomal aberrational activity, in words (CHL cells [2]): potent chromosomal aberrational activity
Cc1c(N2CC[C@H](N)C2)c(F)c(N)c2c(=O)c(C(=O)O)cn(C3CC3)c12.Cl [Example 12, 5-Amino-7-((S)-3-amino-1-pyrrolidinyl)-1-cyclopropyl-6-fluoro-1,4-dihydro-8-methyl-4-oxoquinoline-3-carboxylic acid hydrochloride]	did not show	did not show	0.16	0/5	0.025	1.56	0.78	0.025	0.025	3.13	0.2	1.56	6	0.05	12.5	1.56	0.1	0.025	0.2	6.25	MIC (E. cloacae HNR1946): 0.2 µg/mL; MIC (E. faecalis HPC948): 0.39 µg/mL; MIC (E. faecalis HPC975): 1.56 µg/mL; MIC (E. faecalis HPC984): 0.1 µg/mL; MIC (A. calcoaceticus HNR904): 12.5 µg/mL; MIC (A. calcoaceticus HNR916): 0.05 µg/mL; MIC (A. calcoaceticus HNR939): 0.78 µg/mL; antibacterial activity compared with reference compound, in words ([4]; hydrochloride): much higher antibacterial activity than the analogous reference compound E; also recorded: higher antibacterial activity than the analogous reference compound F; also recorded: much higher antibacterial activity than the analogous reference compound I
Cc1c(N2C[C@@H](N)C3(CC3)C2)c(F)c(N)c2c(=O)c(C(=O)O)cn(C3CC3)c12 [Example 10, 5-Amino-7-((S)-7-amino-5-azaspiro[2.4]hept-5-yl)-1-cyclopropyl-6-fluoro-1,4-dihydro-8-methyl-4-oxoquinoline-3-carboxylic acid]	did not show	–	0.18	0/5	0.025	1.56	0.39	0.025	0.012 (≈ 0.0311 µM)	3.13 (≈ 8.1 µM)	0.2 (≈ 0.518 µM)	1.56 (≈ 4.04 µM)	3 (≈ 0.00776 µM)	0.05 (≈ 0.129 µM)	6.25 (≈ 16.2 µM)	3.13 (≈ 8.1 µM)	0.1 (≈ 0.259 µM)	0.025 (≈ 0.0647 µM)	0.1 (≈ 0.259 µM)	3.13 (≈ 8.1 µM)	MIC (E. cloacae HNR1946): 0.2 µg/mL (≈ 0.518 µM); MIC (E. faecalis HPC948): 0.39 µg/mL; MIC (E. faecalis HPC975): 1.56 µg/mL; MIC (E. faecalis HPC984): 0.1 µg/mL; MIC (A. calcoaceticus HNR904): 1.56 µg/mL (≈ 4.04 µM); MIC (A. calcoaceticus HNR916): 0.012 µg/mL (≈ 0.0311 µM); MIC (A. calcoaceticus HNR939): 0.2 µg/mL (≈ 0.518 µM); antibacterial activity compared with reference compound, in words [4]: higher antibacterial activity than the analogous reference compound B; also recorded: excellent antibacterial activity as potent as the analogous reference compound C; also recorded: much higher antibacterial activity than the analogous reference compound I; Tmax ([5]; plasma, rat, 5 mg/kg oral): 15 min; Cmax ([5]; plasma, rat, 5 mg/kg oral, read-out: Concentration in plasma at Tmax): 580 ng/mL; Concentration in kidney at Tmax ([5]; rat, 5 mg/kg oral): 8.5 µg/g; Concentration in lung at Tmax ([5]; rat, 5 mg/kg oral): 4.0 µg/g; Kp ([5]; rat, kidney, read-out: concentration ratio (tissue/plasma), kidney): 15; Kp ([5]; rat, lung, read-out: concentration ratio (tissue/plasma), lung): 6.9; a/b: concentration ratio (tissue/plasma) kidney, Example 10/ciprofloxacin [5, 6]: 4.2; a/b: concentration ratio (tissue/plasma) lung, Example 10/ciprofloxacin [5, 6]: 8.6; a/b: kidney concentration, Example 10/ciprofloxacin [5, 6]: 7.4; a/b: lung concentration, Example 10/ciprofloxacin [5, 6]: 16
